According to article PMC12041765, “The development of a high-throughput acoustic droplet ejection mass-spectrometry assay and a solid-supported membrane (SSM)-based electrophysiological assay to study the pharmacological inhibition of SLC1-A3, -A2 and -A1 in a drug discovery program” (Frontiers in Pharmacology, 2025):
Like-named read-outs stand apart in the source and are kept apart here.

Experiments:
SLC1A2 (EAAT2) = biological target: T1, SLC1A2 (EAAT2) (Homo sapiens, UniProt P43004); assay: SSM-based electrophysiology (SURFE2R 96 SE), EAAT2 membrane fragments; assay type: biochemical; settings: glutamic acid up to 500 µM, membrane 4 µg/well, read-out: SURFE^2R Km
T1 construct: host or cells: HEK293-JumpIn, doxycycline-induced

EAAT2 [1] = tested on: EAAT2; design: method as in Arriza et al. (1994); settings: radio-labeled uptake, COS7 cells, ref Arriza et al. (1994); cited from earlier work
EAAT2 [2] = tested on: EAAT2; design: method as in Arriza et al. (1994); settings: oocytes, Voltage-Clamp, ref Arriza et al. (1994); cited from earlier work
EAAT2 [3] = settings: cited from earlier work
EAAT3 [4] = settings: cited from earlier work
EAAT1 [5] = settings: radio-labeled uptake, COS7 cells, ref Arriza et al. (1994); cited from earlier work
EAAT3 [6] = settings: radio-labeled uptake, COS7 cells, ref Arriza et al. (1994); cited from earlier work
EAAT1 [7] = settings: oocytes, Voltage-Clamp, ref Arriza et al. (1994); cited from earlier work
EAAT3 [8] = settings: oocytes, Voltage-Clamp, ref Arriza et al. (1994); cited from earlier work
EAAT1 [9] = settings: glutamic acid uptake assay, ref Vallejo-Illarramendi et al. (2005); cited from earlier work
EAAT1 [10] = settings: cited from earlier work
[11] = FLIPR membrane potential assay, ref Faure et al. (2006)
[12] = similar methodologies (FLIPR), ref Alaux et al. (2005)

T1 sequence (P43004 whole entry, the tested form may be a part): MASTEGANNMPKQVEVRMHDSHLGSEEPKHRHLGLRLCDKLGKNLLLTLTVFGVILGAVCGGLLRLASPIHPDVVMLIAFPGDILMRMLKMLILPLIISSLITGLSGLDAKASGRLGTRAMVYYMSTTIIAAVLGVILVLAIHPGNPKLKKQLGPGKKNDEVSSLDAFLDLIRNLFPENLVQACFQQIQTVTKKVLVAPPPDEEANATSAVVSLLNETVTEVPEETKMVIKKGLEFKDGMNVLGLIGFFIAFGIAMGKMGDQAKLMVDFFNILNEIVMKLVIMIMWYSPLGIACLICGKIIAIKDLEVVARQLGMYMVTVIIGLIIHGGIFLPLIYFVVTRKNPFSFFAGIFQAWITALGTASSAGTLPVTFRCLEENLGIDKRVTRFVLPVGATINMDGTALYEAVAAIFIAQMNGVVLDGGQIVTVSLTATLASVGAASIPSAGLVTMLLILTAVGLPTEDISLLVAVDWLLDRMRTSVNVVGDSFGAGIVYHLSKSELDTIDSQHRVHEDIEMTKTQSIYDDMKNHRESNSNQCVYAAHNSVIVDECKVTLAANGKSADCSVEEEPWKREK

N[C@@H](CCC(=O)O)C(=O)O [glutamic acid, L-glutamic acid]
Km (SLC1A2 (EAAT2)): 9.5 µM | Km (EAAT2 [1]): 97 ± 4 µM | Km (EAAT2 [2]): 18 ± 3 µM | Km (EAAT2 [3]; [11]): 21 µM | Km (EAAT2 [3]; [12]): 21 µM | Km (EAAT3 [4]; [11]): 9.9 µM | Km (EAAT3 [4]; [12]): 25 µM | Km (EAAT1 [5]): 48 ± 10 µM | Km (EAAT3 [6]): 62 ± 8 µM | Km (EAAT1 [7]): 20 ± 3 µM | Km (EAAT3 [8]): 28 ± 6 µM | Km (EAAT1 [9]): 27.5 ± 2.3 µM | Km (EAAT1 [10]; [11]): 7.9 µM | Km (EAAT1 [10]; [12]): 9.2 µM
